The source of these data is patent US20230233566A1, “INHIBITION OF BMI1 ELIMINATES CANCER STEM CELLS AND ACTIVATES ANTITUMOR IMMUNITY” (The Regents of the University of California, priority 2020, published 2023).

Test [1] relates to CD8+ T cells. The experiment in a line: Immunostaining of CD8+ T cells in HNSCC. The test is classed as in vivo, mouse. To be noted: 4NQO-induced HNSCC, treated 4 weeks. The procedure: (§1) The immunocomplexes were detected and visualized using related secondary antibodies conjugated with Cy2 or Cy3 (Jackson ImmunoResearch Laboratories). […] At least three sections from each HNSCC lesions were immunostained and analyzed. Tumor cells (>150) and CD8+, Ac-casp3+ and Tomato^+ cells of these tumor cell areas were counted manually in each section. The percentage of CD8+, Ac-casp3^+ and Tomato^+ cells were calculated by dividing those cells with tumor cells and averaged from the sections.

Test [2] has as its system SCC23 cells. Description: RNA-Seq and GO analysis in SCC23 cells. It counts as cell-based, human. The procedure:
Total RNA was isolated from PTC209-treated or shBMI1 knockdown SCC cells using a RNeasy Micro Kit (QIAGEN, Cat #74004). RNA quality was examined using an Agilent 2100 Bioanalyzer. Library preparation using the KAPA RNA-Seq Library Preparation Kits (KAPA Biosystems, Cat #07960140001) was performed at the UCLA sequencing core facility, and RNAs were single-end sequenced on Illumina HiSeq 3000 machines. The online DAVID bioinformatics resources were used to analyze the differentially expressed genes under the category of GOTERM_BP_DIRECT. The heatmap was generated with Heatmap Builder. The raw data was deposited at the Gene Expression Omnibus (GEO) under the subseries entry GSE140433.

The test system of test [3] is CCL5, CXCL9, CXCL10, and CXCL11. Description: qRT-PCR and ELISA of CCL5, CXCL9, CXCL10, CXCL11 in SCC cells. The test is classed as cell-based, human. To be noted: SCC1 and SCC23 cells. How it is done: (§2) For qRT-PCR, total RNA was prepared using TRIzol reagent (Thermo Fisher Scientific Cat #15596026), and 1 μg of RNA was reversely transcribed with random primer (Thermo Fisher Scientific Cat #48190011), dNTP mix (Thermo Fisher Scientific, Cat #18427013), and M-MuLV Reverse Transcriptase (New England Biolabs, Cat #M0253L). The levels of mRNA were […] measured using a SYBRGreen supermix (Bio-Rad, Cat #1708880). GAPDH was used as an internal control.
Cells were lysed using the radioimmunoprecipitation assay (RIPA) buffer (Sigma-Aldrich, Cat #R0278) added with a cocktail of protease inhibitors (Thermo Fisher Scientific, Cat ##78430) and phosphatase inhibitors (Sigma-Aldrich, Cat #4906845001). Protein extracts were resolved on a 10% or 15% SDS polyacrylamide gel and then transferred to a polyvinylidene difluoride membrane. Membranes were blocked with 5% milk for 1 h and incubated with primary antibodies overnight at 4° C. […] The signals were detected using the Clarity Western ECL kit (Bio-Rad, Cat #1705060). […] After treatment, supernatants were collected, and the protein levels of CCL5, CXCL9, CXCL10 and CXCL11 were measured with ELISA (R&D Systems, Cat #DRN00B, DCX900, DIP100, DCX110) according to the manufacturer's instructions.

For test [4], the system named is BMI1+ CSCs. The experiment in a line: In vivo labeling and lineage tracing of Tomato+ BMI1+ CSCs. Further details: species or system mouse. To be noted: tamoxifen 1 day prior to sacrifice, treated 4 weeks. How it is done: as §1
The test system of test [5] is pH2A.X. Description: pH2A.X immunofluorescent staining in 4NQO-induced HNSCC. More on the design: species or system mouse. To be noted: 4NQO-induced HNSCC in vivo.
Test [6] deals with BMI-1. To be noted: HEK293T cell line; cited from earlier work.
The subject of test [7] is SCC23 cells. The experiment in a line: qRT-PCR of ATM, DNA-PKcs, MRE11, JUN, FOSL1, MMP3, MMP9 in SCC23 cells. The test is classed as cell-based, human. How it is done:
as §2

Test [8] concerns neutrophils and MDSCs (Gr1+CD11b+ cells). The experiment in a line: Immunofluorescent staining of neutrophils and MDSCs in HNSCC. To be noted: 4NQO-induced HNSCC. It counts as in vivo, mouse.
Test [9] has as its system cytosolic dsDNA. The experiment in a line: Cytosolic dsDNA staining (PicoGreen/MitoTracker). It counts as cell-based, human. To be noted: SCC23 and SCC1 cells. The procedure: Following the treatment, SCC23 and SCC1 cells were incubated with culture media containing PicoGreen (dsDNA stain, 200-fold dilution, Thermo Fisher Scientific, Cat #P11496) and MitoTracker ([…], 100 nM, Thermo Fisher Scientific, Cat #M7512). One hour after incubation, cells were fixed with 4% paraformaldehyde for 10 min. Cells were then washed twice with PBS and stained with DAPI (Sigma-Aldrich, Cat #D9542) and mounted with SlowFade Antifade Reagents (Thermo Fisher Scientific, Cat #536937). Staining was imaged and assessed using a Leica SP5X laser scanning confocal microscope.

For test [10], the system named is CSCs isolated from human colorectal cancers. To be noted: cited from earlier work.
The subject of test [11] is pH2A.X. Description: DNA damage in SCC23 and SCC1 cells (pH2A.X, alkaline comet assay). It counts as cell-based, human. How it is done: Cells were lysed using the radioimmunoprecipitation assay (RIPA) buffer (Sigma-Aldrich, Cat #R0278) added with a cocktail of protease inhibitors (Thermo Fisher Scientific, Cat ##78430) and phosphatase inhibitors (Sigma-Aldrich, Cat #4906845001). Protein extracts were resolved on a 10% or 15% SDS polyacrylamide gel and then transferred to a polyvinylidene difluoride membrane. Membranes were blocked with 5% milk for 1 h and incubated with primary antibodies overnight at 4° C. Primary antibodies used in this study were: anti-phospho-STING (Ser366) (1:1,000; Cell Signaling Technology, Cat #19781), anti-STING (1:1,000; Cell Signaling Technology, Cat #13647), anti-phospho-TBK1 (Ser172) (1:1,000; Cell Signaling Technology, Cat #5483), anti-TBK1 (1:1,000; Cell Signaling Technology, Cat #3504), anti-phospho-IRF3 (Ser396) (1:1,000; Cell Signaling Technology, Cat #29047), anti-IRF3 (1:1,000; Cell Signaling Technology, Cat #4302), anti-BMI1 (1:1,000; Cell Signaling Technology, Cat #6964), anti-Ubiquityl-Histone H2A (Lys119) (1:1000, Cell Signaling Technology, Cat #8240), anti-phospho Histone H2A.X (Ser139) (1:1000; Cell Signaling Technology, Cat #9718), and anti-GAPDH (1:1000; Cell Signaling Technology, Cat #5174), anti-Histone H3 (1:2,000; Cell Signaling Technology, Cat #4499). The signals were detected using the Clarity Western ECL kit (Bio-Rad, Cat #1705060). To measure the protein levels of CCL5, CXCL9, CXCL10 and CXCL11, cells were treated with PTC209 or shBMI1 knockdown for 48 hr. After treatment, supernatants were collected, and the protein levels of CCL5, CXCL9, CXCL10 and CXCL11 were measured with ELISA (R&D Systems, Cat #DRN00B, DCX900, DIP100, DCX110) according to the manufacturer's instructions.
Single cell gel electrophoresis comet assays were performed using the SCGE assay Kit (Enzo Life Sciences, Cat #ADI-900-166). Following the treatment, cells were mixed with low melting point agarose at a volume ratio of 1:50, and 100 μl of aliquots were loaded onto pre-warmed slides. Slides were incubated in pre-chilled lysis solution for 1 h and then in pre-chilled alkaline solution for 1 h. Electrophoresis was run at 22 V in the TBE buffer for 30 min. Comets were stained with CYGREEN dye for 30 min and imaged. 50 individual cells at least per sample were evaluated in duplicates by the CASP Version 1.2.2 analysis tool.

Test [12] relates to SOX2+ CSCs. It counts as in vivo, mouse. To be noted: only strongly stained cells counted.

As for `COc1cc(Br)c(Nc2nc(-c3c(C)nc4ncccn34)cs2)c(Br)c1` [PTC209, N-(2,6-dibromo-4-methoxyphenyl)-4-(2-methylimidazo[1,2-a]pyrimidin-3-yl)thiazol-2-amine], the “CD8+ T cell infiltration in HNSCC” value in test [1] was “could induce CD8+ T cell infiltration in tumors”. Besides, the “IFN-regulated chemokines (CCL5, CXCL9, CXCL10, and CXCL11), RNA-seq heatmap” value in [2] is “significantly increased”. In addition, the “GO analysis of induced genes” value in [2] (RNA-Seq) is “induced the expression of genes associated with immune response and chemotaxis”. In addition, the “expression of CCL5, CXCL9, CXCL10, and CXCL11” value in test [3] is “significantly increased the expression of CCL5, CXCL9, CXCL10, and CXCL11 in both SCC1 and SCC23 cells”. Also, the “BMI1+ CSCs in HNSCC (in vivo labeling)” value in test [4] is “able to reduce BMI1+ CSCs”. In addition, the “pH2A.X in HNSCC” value in test [5] is recorded as “significantly increased”. The IC50 in [6] is 500 nM. In [7], the “ATM, DNA-PKcs, and MRE11 mRNA expression” value was “does not affect the expression of ATM, DNA-PKcs, and MRE11”; the “JUN, FOSL1, MMP3, and MMP9 mRNA expression” value is “does not change the expression of JUN, FOSL1, MMP3, and MMP9 significantly”. Besides, in test [8], the “percentage of neutrophils and MDSCs (Gr1+CD11b+ cells) in HNSCC” value was “does not significantly change the percentage of neutrophils and MDSCs (Gr1^+CD11b^+ cells) in HNSCC”. In test [9], the “accumulation of cytosolic dsDNA” value is “induced the accumulation of cytosolic dsDNA”. The “colorectal tumor growth and frequency of CSCs” value in test [10] (mouse xenograft models) is “inhibited colorectal tumor growth and reduced the frequency of CSCs in mouse xenograft models”. Also, the “self-renewal of CSCs” value in test [10] (xenografted nude mouse model) was “abolish the self-renewal of CSCs isolated from human colorectal cancers”. In addition, the Olive tail moment result in test [11] (alkaline comet assay) is “significantly increased the Olive tail moment in SCC23 and SCC1 cells”. The pH2A.X entry in test [11] (immunostaining and Western blot) is “increased pH2A.X in SCC23 and SCC1 cells”. The “number of SOX2+ cells” value in [12] is “significantly reduced”.
